# Measured values published in patent US4410525A, “Alkoxy pyrazole derivatives and compositions” (Establissements Nativelle S.A., priority 1981, dated 1983).
# Where two headings read alike, the source gives them in different places.
# Legend:
# [1] = Acute toxicity (lethal dose 50) in the mouse; details: in vivo, oral (P.O.), 5 males and 5 females per dose, read-out: LD 50 P.O.
# Description: The acute toxicity of the deriatives of the invention were studied by oral administration (P.O) to the mouse (10 animals, 5 males and 5 females per dose) and calculation of the lethal dose 50 (LD 50) in accordance with the method of Litchfield and Wilcoxon (J. Pharmacol., 96, 99-113 (1949)). Table 1 gives the LD 50 values of the derivatives of the invention.
# In certain cases, the LD 50 was also studied after intraperitoneal injection (I.P.) of the derivatives.
# [2] = test system: isolated guinea pig auricle; test: Maximum stimulation frequency test on isolated guinea pig auricle; details: Cavia porcellus; 10 mg/l; read-out: Δ% MFS (decrease of the maximum frequency followed)
# Description: The maximum frequency test carried out studied the maximum stimulation frequency which can cause contraction of an isolated guinea pig auricle placed in a solution containing a derivative of the invention. The measurement was carried out before (control period) and then after introduction of the derivative into the solution.
# rabbit cornea = test: Local contact anesthesia on the rabbit cornea; assay type: in vivo; details: solution at 0.25% or 1% by weight, eyewash instillation
# Description: For example, the derivatives described in Examples 2, 3, 4, 6, 7 and 9 are local anesthetics (100% anesthesia) in a solution at 0.25% or 1% by weight.
# [3] = test system: anoxic ventricular fibrillation in mice; test: Cardiac antifibrillatory activity on the mouse (Lawson test); assay type: in vivo; details: ip, intraperitoneal, 10 minutes before chloroform, read-out: ED 50 (protects half the mice against anoxic ventricular fibrillation)
# Description: Cardiac antifibrillatory activity of the derivatives of the invention has been verified on the mouse using the Lawson test, in accordance with the method described by J. W. Lawson, J. Pharmacol. Exp. Therp. 160, 22-31 (1968), and C. Narcisse et al., Ann. Pharm. Fr. 37, 325-330 (1979).
# The mice (20 per dose) received an intraperitoneal injection of the derivative 10 minutes before being placed in a chloroform saturated atmosphere. As soon as respiratory arrest occurred, the thorax was opened (5 to 10 seconds) and the state of the heart was checked: presence or absence of ventricular fibrillation. The efficacy dose 50 (ED 50) of the derivative being studied is the dose which protects half the mice against anoxic ventricular fibrillation.
# [4] = test system: ventricular arrhythmias induced by aconitine in the anesthetized rat; test: Antiarrhythmic test with aconitine on the rat; assay type: in vivo
# Description: The derivatives of the invention were used in the test with aconitine on the rat. For this test, the anesthetized rat was intoxicated by an intravenous perfusion of aconitine (solution of aconitine nitrate: 15 mg/l; speed of perfusion: 0.4 ml/min) while its electrocardiogram was recorded permanently. During perfusion at constant speed, the time necessary for the appearance of ventricular arrhythmias, successively ventricular extrasystoles (ESV), ventricular tachycardium (TV) and ventricular fibrillation (FV) was measured.
# The animals were divided into a control group (untreated) and treated group (different doses). The results are expressed as a percentage of prolonging the time of the appearance of the arrhythmias in the treated groups in relation to the control group. This prolongation of arrhythmia appearance time therefore corresponds to myocardiac protection against the arrhythmic effects of aconitine.
# anesthetized dog = test: Hemodynamic effects on the anesthetized dog; assay type: in vivo; details: i.v.; for (dp/dt)l/p, percentage of variation / Cardiac flow, percentage of variation / Cardiac frequency, percentage of variation / Contraction force of the myocardium, percentage of variation / Systolic arterial pressure, percentage of variation / Systolic volume, percentage of variation: Example 4 series, vs pretreatment; for Cardiac frequency (result in words) / Systolic arterial pressure (result in words) / force of ventricular myocardiac contractions (result in words) / cumulative dose at which a 20% drop of cardiac flow is reached: anesthetized dog
# Description: Cardiovascular tolerance was studied on the isolated guinea pig auricle, on the anesthetized rat and on the anesthetized dog.
# On the anesthetized dog, the results obtained with respect to hemodynamic tolerance are summarized in Table 2 below which indicates the percentages of variation of the hemodynamic parameters in relation to the pre-treatment control period for the derivatives of Examples 2 and 4.
# The parameters were recorded by means of:
# Catheters connected to pressure sensors (arterial pressure, left ventricular pressure and its first derivative dp/dt);
# Electromagnetic flowmeter on the aorta (aortic flow);
# Strain gauge placed on the left ventricular myocardium (force of myocardiac contraction).
# The derivatives were injected intraveneously, one dose approximately every 30 minutes and their effects were measured 20 minutes after the completion of the injection (length of the injection 2 minutes).
# [5] = test system: ventricular extrasystoles in the dog; test: Harris test on the dog; assay type: in vivo; details: during the 2 hours following the injection
# Description: By way of example, the number of ventricular extrasystoles per minute decreases by approximately 50% during the 2 hours following the injection of the product, in the case of the derivative described in Example 10. Moreover, the antiarrhythmic effect (myocardiac protection) increases with the size of the dose injected.
# [6] = read-out: Prolongation of time of appearance of ventricular extrasystoles (ESV)
# [7] = read-out: Prolongation of time of appearance of ventricular fibrillation (FV)
# [8] = read-out: Prolongation of time of appearance of ventricular tachycardium (TV)
smiles,measurement,setting,value
"Cc1c(-c2ccccc2)n[nH]c1OCCN1CCOCC1 [Example 4, 3-Phenyl-4-methyl-5-morpholinoethoxy-pyrazole]",LD50,[1],750 mg/kg
same,inhibition at 10 µg/mL,[2],27%
same,local anesthesia,rabbit cornea,100%
same,ED50,[3],46 mg/kg
same,change in vivo at 10 mg/kg,[4]; [6],7%
same,change in vivo at 10 mg/kg,[4]; [7],18%
same,change in vivo at 10 mg/kg,[4]; [8],22%
same,"(dp/dt)l/p, percentage of variation",anesthetized dog; dose 1 mg/kg,+10%
same,"Cardiac flow, percentage of variation",anesthetized dog; dose 1 mg/kg,0%
same,"Cardiac frequency, percentage of variation",anesthetized dog; dose 1 mg/kg,0%
same,"Contraction force of the myocardium, percentage of variation",anesthetized dog; dose 1 mg/kg,+5%
same,"Systolic arterial pressure, percentage of variation",anesthetized dog; dose 1 mg/kg,0%
same,"Systolic volume, percentage of variation",anesthetized dog; dose 1 mg/kg,0%
same,"(dp/dt)l/p, percentage of variation",anesthetized dog; dose +3 mg/kg,+2%
same,"Cardiac flow, percentage of variation",anesthetized dog; dose +3 mg/kg,0%
same,"Cardiac frequency, percentage of variation",anesthetized dog; dose +3 mg/kg,0%
same,"Contraction force of the myocardium, percentage of variation",anesthetized dog; dose +3 mg/kg,+10%
same,"Systolic arterial pressure, percentage of variation",anesthetized dog; dose +3 mg/kg,0%
same,"Systolic volume, percentage of variation",anesthetized dog; dose +3 mg/kg,0%
same,"(dp/dt)l/p, percentage of variation",anesthetized dog; dose +10 mg/kg,-10%
same,"Cardiac flow, percentage of variation",anesthetized dog; dose +10 mg/kg,-23%
same,"Cardiac frequency, percentage of variation",anesthetized dog; dose +10 mg/kg,0%
same,"Contraction force of the myocardium, percentage of variation",anesthetized dog; dose +10 mg/kg,+26%
same,"Systolic arterial pressure, percentage of variation",anesthetized dog; dose +10 mg/kg,0%
same,"Systolic volume, percentage of variation",anesthetized dog; dose +10 mg/kg,-23%
same,"(dp/dt)l/p, percentage of variation",anesthetized dog; dose +20 mg/kg,-21%
same,"Cardiac flow, percentage of variation",anesthetized dog; dose +20 mg/kg,-34%
same,"Cardiac frequency, percentage of variation",anesthetized dog; dose +20 mg/kg,0%
same,"Contraction force of the myocardium, percentage of variation",anesthetized dog; dose +20 mg/kg,+42%
same,"Systolic arterial pressure, percentage of variation",anesthetized dog; dose +20 mg/kg,0%
same,"Systolic volume, percentage of variation",anesthetized dog; dose +20 mg/kg,-34%
same,"(dp/dt)l/p, percentage of variation",anesthetized dog; dose +40 mg/kg,-10%
same,"Cardiac flow, percentage of variation",anesthetized dog; dose +40 mg/kg,-11%
same,"Cardiac frequency, percentage of variation",anesthetized dog; dose +40 mg/kg,-18%
same,"Contraction force of the myocardium, percentage of variation",anesthetized dog; dose +40 mg/kg,+52%
same,"Systolic arterial pressure, percentage of variation",anesthetized dog; dose +40 mg/kg,0%
same,"Systolic volume, percentage of variation",anesthetized dog; dose +40 mg/kg,-8%
same,Cardiac frequency (result in words),anesthetized dog,does not change
same,Systolic arterial pressure (result in words),anesthetized dog,does not change
same,force of ventricular myocardiac contractions (result in words),anesthetized dog,increases
same,cumulative dose at which a 20% drop of cardiac flow is reached,anesthetized dog,greater than 4 mg/kg
c1ccc(-c2cc(OCCN3CCCCC3)[nH]n2)cc1 [Example 9],LD50,[1],400 to 800 mg/kg
same,inhibition at 10 µg/mL,[2],48%
same,local anesthesia,rabbit cornea,100%
same,ED50,[3],44 mg/kg
same,change in vivo at 10 mg/kg,[4]; [6],0%
same,change in vivo at 10 mg/kg,[4]; [7],38%
same,change in vivo at 10 mg/kg,[4]; [8],28%
same,Cardiac frequency (result in words),anesthetized dog,drops moderately
same,Systolic arterial pressure (result in words),anesthetized dog,does not change
same,force of ventricular myocardiac contractions (result in words),anesthetized dog,does not vary significantly
same,cumulative dose at which a 20% drop of cardiac flow is reached,anesthetized dog,greater than 4 mg/kg
Clc1ccc(-c2cc(OCCN3CCOCC3)[nH]n2)cc1 [Example 10],LD50,[1],1000 mg/kg
same,decrease of the number of ventricular extrasystoles per minute,[5],approximately 50%
same,inhibition at 10 µg/mL,[2],15%
